According to US11214803B2, “Modulators of YAP1 expression” (Ionis Pharmaceuticals, Inc., priority 2019, dated 2022):
Marks after values point to notes of the source that are not given here. Strand notation (5' to 3'): a small letter for the sugar, then the base; units joined by * are phosphorothioate-linked, units joined directly phosphodiester-linked; [ ] holds rarer units or linkages, { } end groups; capitals alone tell only the bases. k = constrained ethyl (cEt); [5mC] = 5-methylcytosine; d = 2'-deoxy (DNA)

Test system: Yap1 mRNA
Test: Antisense inhibition of human Yap1 in A-431 cells by cEt gapmers, single dose (Example 2, RTS4814)
Type: cell-based
How it was run: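 Each 16-nucleoside gapmer (ten-deoxy gap, three-cEt wings) is tested once at 2,000 nM in A-431 cells by free uptake. Yap1 mRNA after about 48 hours is measured by quantitative RT-PCR and expressed relative to untreated control.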

[1] = Table 21, Yap1 mRNA, percent of untreated control, 3-10-3 cEt gapmers targeting SEQ ID NO.: 1 and 2
[2] = Table 19, A-431 cells, 5,000 cells per well, free uptake, 2,000 nM modified oligonucleotide, approx. 48 hours, RTS4814, normalized to RIBOGREEN, Yap1 mRNA as percent of untreated control
[3] = Table 18, A-431 cells, 5,000 cells per well, free uptake, 2,000 nM modified oligonucleotide, approx. 48 hours, RTS4814, normalized to RIBOGREEN, Yap1 mRNA as percent of untreated control
[4] = Table 20, Yap1 mRNA, percent of untreated control, 3-10-3 cEt gapmers targeting SEQ ID NO.: 1 and 2
[5] = Yap1 mRNA as percent of untreated control, A-431 cells, 3-10-3 cEt gapmers targeting SEQ ID NO.: 1, and 2, Table 31
[6] = Table 22, Yap1 mRNA as percent of untreated control, 3-10-3 cEt gapmers, single dose
[7] = Table 33, Yap1 mRNA, percent of untreated control, 3-10-3 cEt gapmers targeting SEQ ID NO.: 1, and 2
[8] = Table 32, Yap1 mRNA, percent of untreated control, 3-10-3 cEt gapmers targeting SEQ ID NO.: 1, and 2
[9] = Table 25, Yap1 mRNA as percent of untreated control, 3-10-3 cEt gapmers targeting SEQ ID NO.: 1, and 2

1074503 (k[5mC]*kA*kA*d[5mC]*dT*dA*d[5mC]*dA*dA*dT*dA*dA*d[5mC]*k[5mC]*kA*kT; antisense) [Compound 1074503]
YAP1 (% UTC) [1]: 29 % UTC

1075717 (k[5mC]*kA*kT*dA*dA*dA*dT*dT*dT*d[5mC]*dA*dG*d[5mC]*k[5mC]*kG*kA; antisense) [Compound 1075717]
YAP1 (% UTC) [2]: 10 % UTC

1075236 (antisense kT*kA*kT*dA*dA*dT*dA*d[5mC]*d[5mC]*dA*d[5mC]*dA*dA*kA*kG*kT) [Compound 1075236]
YAP1 (% UTC) [3]: 81 % UTC

1075942 (kT*kG*kA*d[5mC]*dT*dA*dT*dA*d[5mC]*dA*dT*dG*dG*kT*kG*kA; antisense) [Compound 1075942]
YAP1 (% UTC) [4]: 46 % UTC

1075270 (antisense k[5mC]*kT*kT*dT*dA*dT*dT*dA*dA*d[5mC]*d[5mC]*dT*dG*kG*kA*kG) [Compound 1075270]
YAP1 (% UTC) [4]: 18 % UTC

1075345 (antisense kG*kT*kA*dA*d[5mC]*dT*dA*dA*dA*dA*dG*dG*dG*kA*kG*kT) [compound 1075345]
YAP1 (% UTC) [5]: 29 % UTC

1075016 (antisense kT*k[5mC]*kA*dG*dA*dA*dT*dA*dA*dG*dT*dA*dT*kG*kA*kT) [Compound 1075016]
YAP1 (% UTC) [6]: 100 % UTC

1075955 (kG*kA*k[5mC]*d[5mC]*dT*dA*dT*dA*dA*dT*dA*d[5mC]*dA*kG*kA*kA; antisense) [compound 1075955]
YAP1 (% UTC) [7]: 85 % UTC

1075793 (k[5mC]*kA*kT*dT*dA*dG*dT*dT*dG*d[5mC]*d[5mC]*d[5mC]*dT*kG*kA*k[5mC]; antisense) [compound 1075793]
YAP1 (% UTC) [5]: 31 % UTC

1076497 (kA*kA*kA*dG*dA*dA*dT*dA*d[5mC]*d[5mC]*dA*dA*d[5mC]*k[5mC]*kT*kG; antisense) [compound 1076497]
YAP1 (% UTC) [5]: 72 % UTC

1076561 (kG*kT*kA*dT*dA*d[5mC]*d[5mC]*dA*dA*dG*d[5mC]*dT*dA*k[5mC]*kT*k[5mC]; antisense) [compound 1076561]
YAP1 (% UTC) [5]: 22 % UTC

1074866 (kA*kA*k[5mC]*dA*dT*dA*dT*dG*dA*dG*d[5mC]*dA*dT*kG*k[5mC]*kT; antisense) [compound 1074866]
YAP1 (% UTC) [8]: 30 % UTC

1076267 (kA*kT*kT*dT*dA*dA*dG*dG*dT*dG*d[5mC]*dA*dT*kA*kA*kG; antisense) [Compound 1076267]
YAP1 (% UTC) [9]: 13 % UTC

1076134 (kG*kA*kT*dT*dA*dG*dA*dG*dT*dT*dG*dG*dG*k[5mC]*kA*kT; antisense) [Compound 1076134]
YAP1 (% UTC) [4]: 10 % UTC

1075474 (kT*kT*kT*dA*dA*dT*dA*dG*dG*d[5mC]*dT*d[5mC]*dT*kA*kT*k[5mC]; antisense) [compound 1075474]
YAP1 (% UTC) [8]: 68 % UTC

1074788 (kT*k[5mC]*kA*dA*d[5mC]*d[5mC]*dA*dT*dA*dA*dG*dT*dA*kG*kA*kT; antisense) [Compound 1074788]
YAP1 (% UTC) [3]: 25 % UTC

1075217 (kT*kT*kA*dT*dT*dT*dT*dA*d[5mC]*dA*d[5mC]*dG*dA*kA*k[5mC]*kT; antisense) [compound 1075217]
YAP1 (% UTC) [5]: 71 % UTC

716364 (k[5mC]*kG*k[5mC]*d[5mC]*dG*d[5mC]*dG*dG*dG*dT*dG*d[5mC]*d[5mC]*kG*kG*kT; antisense) [Compound 716364]
YAP1 (% UTC) (A-431 cells, 5,000 cells per well, free uptake, 2,000 nM modified oligonucleotide, approx. 48 hours, RTS4814, normalized to RIBOGREEN, Table 4, asterisk (*) = targets amplicon region of primer probe set): 110 % UTC

1076107 (k[5mC]*kA*kT*dT*dA*d[5mC]*d[5mC]*dA*dA*d[5mC]*dT*dT*d[5mC]*kT*kT*k[5mC]; antisense) [Compound 1076107]
YAP1 (% UTC) [9]: 23 % UTC

1076455 (antisense kA*k[5mC]*kT*dA*dA*dA*dT*dA*d[5mC]*dT*dT*dT*dT*kA*kG*k[5mC]) [Compound 1076455]
YAP1 (% UTC) [1]: 86 % UTC

1074600 (antisense k[5mC]*kA*kG*d[5mC]*dT*dA*dA*d[5mC]*dT*d[5mC]*dA*dA*dA*kA*k[5mC]*k[5mC]) [Compound 1074600]
YAP1 (% UTC) [6]: 29 % UTC

1076401 (antisense kT*k[5mC]*kT*dA*dA*dA*dG*dA*d[5mC]*dT*d[5mC]*dT*d[5mC]*kA*kT*kT) [compound 1076401]
YAP1 (% UTC) [5]: 31 % UTC

1076166 (kA*kT*kT*dT*dA*d[5mC]*dA*d[5mC]*d[5mC]*dA*d[5mC]*d[5mC]*dG*k[5mC]*k[5mC]*k[5mC]; antisense) [Compound 1076166]
YAP1 (% UTC) [4]: 77 % UTC

1076272 (kT*kT*kA*dG*dA*dA*d[5mC]*dA*dA*d[5mC]*dT*dA*d[5mC]*kT*kA*k[5mC]; antisense) [compound 1076272]
YAP1 (% UTC) (Yap1 mRNA as percent of untreated control, A-431 cells, 3-10-3 cEt gapmers targeting SEQ ID NO.: 1, and 2, Table 30): 53 % UTC

1075396 (kA*kT*kT*dA*dT*d[5mC]*dG*d[5mC]*dA*d[5mC]*dA*dT*dA*k[5mC]*kA*kT; antisense) [Compound 1075396]
YAP1 (% UTC) [3]: 89 % UTC

1076037 (k[5mC]*kT*kT*dA*dA*dA*dT*dT*d[5mC]*dT*d[5mC]*dT*dT*kA*k[5mC]*kG; antisense) [Compound 1076037]
YAP1 (% UTC) [2]: 21 % UTC

1076072 (k[5mC]*kA*k[5mC]*dA*dA*dA*dA*dA*d[5mC]*dT*dG*dG*dT*k[5mC]*kT*kG; antisense) [Compound 1076072]
YAP1 (% UTC) [6]: 18 % UTC

1074227 (antisense kA*k[5mC]*kT*dG*dT*d[5mC]*dG*dA*dA*dG*dA*dT*dG*k[5mC]*kT*kG) [compound 1074227]
YAP1 (% UTC) [7]: 10 % UTC

1074441 (k[5mC]*kA*kA*dA*d[5mC]*dT*dA*dA*dA*dT*dG*d[5mC]*dT*kG*kT*kG; antisense) [Compound 1074441]
YAP1 (% UTC) (Table 23, Yap1 mRNA as percent of untreated control, 3-10-3 cEt gapmers, single dose): 5* % UTC

716377 (kG*kG*kT*dA*dT*d[5mC]*dT*d[5mC]*dA*dA*dA*dA*dG*kA*kA*kG; antisense) [Compound 716377]
YAP1 (% UTC) (Table 5, A-431 cells, 5,000 cells per well, free uptake, 2,000 nM modified oligonucleotide, approx. 48 hours, RTS4814, normalized to RIBOGREEN, Yap1 mRNA relative to untreated control cells): 76 % UTC

1074865 (kA*k[5mC]*kA*dT*dA*dT*dG*dA*dG*d[5mC]*dA*dT*dG*k[5mC]*kT*k[5mC]; antisense) [compound 1074865]
YAP1 (% UTC) [5]: 46 % UTC

1075441 (antisense kG*kA*kA*dT*dT*dA*dA*dA*dG*d[5mC]*dA*dG*dT*kG*k[5mC]*k[5mC]) [compound 1075441]
YAP1 (% UTC) [5]: 24 % UTC

1075464 (antisense k[5mC]*k[5mC]*kA*d[5mC]*dT*dA*dA*dA*d[5mC]*d[5mC]*dA*d[5mC]*d[5mC]*kT*kA*kA) [Compound 1075464]
YAP1 (% UTC) [6]: 77 % UTC

1075443 (antisense kG*kA*kT*dT*dA*dA*d[5mC]*dA*dG*dA*dG*d[5mC]*dT*kA*kG*kA) [compound 1075443]
YAP1 (% UTC) [7]: 29 % UTC

1075078 (antisense k[5mC]*kA*kA*d[5mC]*dT*dA*dT*dA*d[5mC]*dG*dG*dT*d[5mC]*k[5mC]*kA*kT) [Compound 1075078]
YAP1 (% UTC) [4]: 3 % UTC

1076106 (k[5mC]*kT*kA*d[5mC]*dG*dA*dA*dA*dT*dA*dG*dT*dA*kA*k[5mC]*kT; antisense) [Compound 1076106]
YAP1 (% UTC) (Table 24, Yap1 mRNA as percent of untreated control, 3-10-3 cEt gapmers targeting SEQ ID NO.: 1, and 2): 77 % UTC

1074792 (kA*kT*k[5mC]*dA*dA*dT*dG*dT*dG*d[5mC]*dT*d[5mC]*d[5mC]*kA*kT*k[5mC]; antisense) [Compound 1074792]
YAP1 (% UTC) [6]: 4 % UTC
